Target: T1, full-length ATR (Homo sapiens, UniProt Q13535)
T1 construct: in the presence of 5 nM full-length ATR
Assay: ATR Inhibition Assay (radioactive-phosphate incorporation)
Format: biochemical
Details: Ki(app); 5 nM full-length ATR, 10 μM ATP, 800 μM target peptide, 25° C.
Procedure, shortened: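 Buffer was 50 mM Tris/HCl pH 7.5, 10 mM MgCl2, 1 mM DTT, with 5 nM enzyme, 10 μM [γ-33P]ATP and 800 μM target peptide at 25 °C. Compound was pre-incubated 10 min before ATP start, and the reaction was stopped after 24 h. Phosphocellulose filter capture; Ki(app) came from non-linear regression of background-corrected initial rates.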

T1 sequence (Q13535 whole entry): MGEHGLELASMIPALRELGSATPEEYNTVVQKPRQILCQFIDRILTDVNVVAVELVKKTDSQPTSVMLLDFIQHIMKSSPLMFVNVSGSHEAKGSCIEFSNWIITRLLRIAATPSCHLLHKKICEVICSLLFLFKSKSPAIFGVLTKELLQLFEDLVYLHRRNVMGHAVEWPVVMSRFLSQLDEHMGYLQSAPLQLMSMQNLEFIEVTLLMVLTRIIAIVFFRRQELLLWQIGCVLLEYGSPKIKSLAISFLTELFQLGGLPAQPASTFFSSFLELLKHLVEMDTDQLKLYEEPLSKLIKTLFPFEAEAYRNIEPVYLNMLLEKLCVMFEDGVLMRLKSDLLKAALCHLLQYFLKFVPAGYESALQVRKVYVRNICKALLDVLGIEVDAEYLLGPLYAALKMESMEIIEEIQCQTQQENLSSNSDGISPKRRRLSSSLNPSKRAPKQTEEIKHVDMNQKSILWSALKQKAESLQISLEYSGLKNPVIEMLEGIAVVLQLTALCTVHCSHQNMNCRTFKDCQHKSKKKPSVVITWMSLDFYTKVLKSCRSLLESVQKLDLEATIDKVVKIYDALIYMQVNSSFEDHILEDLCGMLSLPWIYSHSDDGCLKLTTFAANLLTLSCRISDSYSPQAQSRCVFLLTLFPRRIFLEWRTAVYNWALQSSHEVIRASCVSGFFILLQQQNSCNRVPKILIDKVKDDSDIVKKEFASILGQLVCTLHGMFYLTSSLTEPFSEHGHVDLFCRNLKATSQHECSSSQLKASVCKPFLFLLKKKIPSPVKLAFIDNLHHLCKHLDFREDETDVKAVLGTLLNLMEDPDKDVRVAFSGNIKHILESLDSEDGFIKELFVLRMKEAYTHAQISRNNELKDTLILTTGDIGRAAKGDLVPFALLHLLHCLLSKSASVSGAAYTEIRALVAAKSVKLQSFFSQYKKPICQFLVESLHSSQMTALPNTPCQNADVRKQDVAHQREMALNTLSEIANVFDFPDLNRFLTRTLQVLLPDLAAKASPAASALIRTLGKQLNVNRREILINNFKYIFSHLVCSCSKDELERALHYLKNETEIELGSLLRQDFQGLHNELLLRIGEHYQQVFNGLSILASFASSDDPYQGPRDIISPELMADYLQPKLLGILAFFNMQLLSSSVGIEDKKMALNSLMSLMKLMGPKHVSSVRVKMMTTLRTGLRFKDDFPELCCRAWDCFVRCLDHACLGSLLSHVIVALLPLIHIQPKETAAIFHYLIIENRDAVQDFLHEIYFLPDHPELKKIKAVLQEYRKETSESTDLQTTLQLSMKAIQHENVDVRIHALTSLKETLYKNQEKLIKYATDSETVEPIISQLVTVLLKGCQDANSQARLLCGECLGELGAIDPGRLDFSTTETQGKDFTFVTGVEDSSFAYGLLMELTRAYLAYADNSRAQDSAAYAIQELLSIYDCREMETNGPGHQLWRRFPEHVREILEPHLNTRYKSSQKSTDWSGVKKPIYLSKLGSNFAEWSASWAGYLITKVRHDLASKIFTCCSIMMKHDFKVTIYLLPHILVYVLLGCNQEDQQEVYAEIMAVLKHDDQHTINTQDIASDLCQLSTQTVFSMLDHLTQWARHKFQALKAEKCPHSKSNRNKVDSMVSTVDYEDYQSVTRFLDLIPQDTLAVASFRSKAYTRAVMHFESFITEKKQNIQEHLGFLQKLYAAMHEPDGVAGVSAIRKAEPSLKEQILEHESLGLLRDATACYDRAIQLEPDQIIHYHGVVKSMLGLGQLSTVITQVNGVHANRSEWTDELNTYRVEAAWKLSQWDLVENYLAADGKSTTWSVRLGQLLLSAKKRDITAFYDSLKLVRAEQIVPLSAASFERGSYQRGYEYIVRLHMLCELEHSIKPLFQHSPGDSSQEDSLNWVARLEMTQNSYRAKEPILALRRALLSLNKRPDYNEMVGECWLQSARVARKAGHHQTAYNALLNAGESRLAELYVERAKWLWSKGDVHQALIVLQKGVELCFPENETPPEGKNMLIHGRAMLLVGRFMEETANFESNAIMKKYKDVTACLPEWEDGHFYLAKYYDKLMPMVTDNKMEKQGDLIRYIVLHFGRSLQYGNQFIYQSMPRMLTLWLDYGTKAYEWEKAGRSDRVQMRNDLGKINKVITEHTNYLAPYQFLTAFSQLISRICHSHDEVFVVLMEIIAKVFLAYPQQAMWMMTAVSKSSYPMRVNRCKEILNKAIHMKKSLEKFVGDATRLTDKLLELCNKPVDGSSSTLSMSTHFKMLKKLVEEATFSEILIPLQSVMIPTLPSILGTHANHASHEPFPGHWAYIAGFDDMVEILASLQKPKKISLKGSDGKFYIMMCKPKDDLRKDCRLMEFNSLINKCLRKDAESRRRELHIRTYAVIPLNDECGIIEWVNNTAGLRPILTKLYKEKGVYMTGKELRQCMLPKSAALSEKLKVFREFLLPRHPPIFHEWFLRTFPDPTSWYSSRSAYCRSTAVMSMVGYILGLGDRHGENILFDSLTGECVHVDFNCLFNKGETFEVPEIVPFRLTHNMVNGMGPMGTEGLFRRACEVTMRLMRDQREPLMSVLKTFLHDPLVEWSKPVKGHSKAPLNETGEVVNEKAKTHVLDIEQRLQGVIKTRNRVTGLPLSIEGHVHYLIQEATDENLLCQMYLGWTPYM

SMILES | Ki
Nc1ncc(C2=CCN(C(=O)C3CC3)CC2)nc1-c1nc2ccccc2[nH]1 [Compound I-284, [4-[5-amino-6-(1H-benzimidazol-2-yl)pyrazin-2-yl]-3,6-dihydro-2H-pyridin-1-yl]-cyclopropyl-methanone] | < 100 nM
Nc1ncc(C2=CCN(C(=O)C3CC3)CC2)nc1-c1nnc(-c2ccccc2)o1 [Compound I-285, [4-[5-amino-6-(5-phenyl-1,3,4-oxadiazol-2-yl)pyrazin-2-yl]-3,6-dihydro-2H-pyridin-1-yl]-cyclopropyl-methanone] | < 100 nM
Nc1ncc(-n2ccc(=O)cc2)nc1-c1nnc(-c2ccccc2)o1 [Compound I-286, 1-[5-amino-6-(5-phenyl-1,3,4-oxadiazol-2-yl)pyrazin-2-yl]pyridin-4-one] | < 100 nM
CCS(=O)(=O)N1CCN(c2cnc(N)c(-c3nnc(-c4ccccc4C)o3)n2)CC1 [Compound I-287, 5-(4-ethylsulfonylpiperazin-1-yl)-3-[5-(o-tolyl)-1,3,4-oxadiazol-2-yl]pyrazin-2-amine] | 100 to 1000 nM
Nc1ncc(N2CC=C(C(=O)O)CC2)nc1-c1nnc(-c2ccccc2)o1 [Compound I-288, 1-[5-amino-6-(5-phenyl-1,3,4-oxadiazol-2-yl)pyrazin-2-yl]-3,6-dihydro-2H-pyridine-4-carboxylic acid] | 100 to 1000 nM
CCS(=O)(=O)N1CCN(c2cnc(N)c(-c3nnc(-c4c(F)cccc4F)o3)n2)CC1 [Compound I-289, 3-[5-(2,6-difluorophenyl)-1,3,4-oxadiazol-2-yl]-5-(4-ethylsulfonylpiperazin-1-yl)pyrazin-2-amine] | 100 to 1000 nM
Nc1ncc(N2CC=C(c3nccs3)CC2)nc1-c1nnc(-c2ccccc2)o1 [Compound I-290, 3-(5-phenyl-1,3,4-oxadiazol-2-yl)-5-(4-thiazol-2-yl-3,6-dihydro-2H-pyridin-1-yl)pyrazin-2-amine] | 100 to 1000 nM
CCCS(=O)(=O)N1CC=C(c2cnc(N)c(-c3nc4ccccc4[nH]3)n2)CC1 [Compound I-291, 3-(1H-benzimidazol-2-yl)-5-(1-propylsulfonyl-3,6-dihydro-2H-pyridin-4-yl)pyrazin-2-amine] | < 100 nM
CCS(=O)(=O)N1CCN(c2cnc(N)c(-c3nnc(-c4ccc(F)cc4)o3)n2)CC1 [Compound I-292, 5-(4-ethylsulfonylpiperazin-1-yl)-3-[5-(4-fluorophenyl)-1,3,4-oxadiazol-2-yl]pyrazin-2-amine] | 100 to 1000 nM
CC(C)C(=O)N1CC=C(c2cnc(N)c(-c3nc4ccccc4[nH]3)n2)CC1 [Compound I-293, 1-[4-[5-amino-6-(1H-benzimidazol-2-yl)pyrazin-2-yl]-3,6-dihydro-2H-pyridin-1-yl]-2-methyl-propan-1-one] | 100 to 1000 nM
CCS(=O)(=O)N1CCN(c2cnc(N)c(-c3nnc(-c4sccc4C)o3)n2)CC1 [Compound I-294, 5-(4-ethylsulfonylpiperazin-1-yl)-3-[5-(3-methyl-2-thienyl)-1,3,4-oxadiazol-2-yl]pyrazin-2-amine] | < 100 nM
CCS(=O)(=O)N1CC2CN(c3cnc(N)c(-c4nc5ccccc5[nH]4)n3)CC2C1 (stereo not drawn) [Compound I-295, 3-(1H-benzimidazol-2-yl)-5-(2-ethylsulfonyl-1,3,3a,4,6,6a-hexahydropyrrolo[3,4-c]pyrrol-5-yl)pyrazin-2-amine] | 1000 to 10000 nM
CS(=O)(=O)CCN1CCN(c2cnc(N)c(-c3nnc(-c4ccccc4)o3)n2)CC1 [Compound I-296, 5-[4-(2-methylsulfonylethyl)piperazin-1-yl]-3-(5-phenyl-1,3,4-oxadiazol-2-yl)pyrazin-2-amine] | 100 to 1000 nM
CCS(=O)(=O)N1CCN(c2cnc(N)c(-c3nnc(-c4ccco4)o3)n2)CC1 [Compound I-297, 5-(4-ethylsulfonylpiperazin-1-yl)-3-[5-(2-furyl)-1,3,4-oxadiazol-2-yl]pyrazin-2-amine] | 100 to 1000 nM
N#CCCN1CCN(c2cnc(N)c(-c3nnc(-c4ccccc4)o3)n2)CC1 [Compound I-298, 3-[4-[5-amino-6-(5-phenyl-1,3,4-oxadiazol-2-yl)pyrazin-2-yl]piperazin-1-yl]propanenitrile] | 1000 to 10000 nM
